Measurements taken from patent US20050089577A1, “Liquid matrix undergoing phase transfer in vivo and liquid oral preparations” (priority 2002, published 2005).
Where “and” joins values, the source holds several entries; their conditions need not be identical. Equal values may be shown once. Where a name gives a salt, the structure may show the parent alone.

Experiments:
acetic acid ulcer = test: Therapeutic effect in rat acetic acid chronic ulcer model; type: in vivo, Wister male rats; settings: 0.5 ml daily once for 2 weeks, eighth week; for Average ulcer coefficient: 3 rats; for Ulcer coefficient: individual rats
Description: That is, the rats were anesthetized under Nembutal and the belly was cut along the midline to remove the stomach. Then, a cylinder of […] in diameter charged with absorbent cotton impregnated sufficiently with 100% acetic acid was pressed against the border between the stomach and the pyloric region for about 30 seconds, and the acetic acid adhering to the serous membrane was wiped off with a germ-free gauze, and the belly was sutured. After 6 weeks, one rat was picked up as the control at random from the untreated group, killed and dissected to confirm ulcer formation. […] In the seventh and eight weeks, one untreated rat selected at random was killed and the belly was opened to reconfirm formation of stomach ulcer. Each rat was killed in the eight week and the area of the ulcer was measured, and the ulcer coefficient was determined according to a method of Okabe et al. (Okabe S, Roth […] method for experimental penetrating gastric and duodenal ulcers in rats. Observation on normal healing. Amer J Dig Dis 16: 277-284, 1971).

indomethacin ulcer = test: Therapeutic effect in indomethacin ulcer rat model; type: in vivo, Wister male rats; parameters: key: no bleeding was expressed as negative (−); trace bleeding was given (±); dotted bleeding (+); broad bleeding (++); settings: individual rats; given 3 hours after indomethacin 20 mg/kg; judged after 24 hours; PGE1 3.3 μg/kg
Description: 3 hours after administration of indomethacin, prostaglandin (PGE1) liquid preparation No. 41 (containing alprostadil alfadex as the medicine), PGE1 solution dissolved in purified water in a dose of 3.3 μg/kg in weight as a positive control, the liquid matrix only was administered as a negative control, and purified water only for confirming formation of ulcer to the untreated group, respectively, was administered. After 1 hour, the rats were given feed. The untreated group after 3 hours from administration of indomethacin and the other groups after 24 hours were killed, and dissected to judge ulcer and bleeding in the stomach.
Indomethacin ulcer in the fasted rats is different from that in humans, and develops in the stomach without generating in the pyloric vestibule. Therefore, judgment was made on the basis of bleeding. That is, no bleeding was expressed as negative (−), trace bleeding was given (±), dotted bleeding (+), and broad bleeding (++).

[1] = rat, in vivo, 20 mg/kg
Description: These rats were fasted for 24 hours, and then indomethacin (IND) suspended in 1% carboxymethyl cellulose (CMS) solution was administered in a dose of 20 mg/kg to the rats via an oral probe for rat into the stomach to induce indomethacin ulcer.

Row | Structure (SMILES) | Average ulcer coefficient (acetic acid ulcer) | Ulcer coefficient (acetic acid ulcer) | other results
1 | NC[C@H]1CC[C@H](C(=O)Oc2ccc(CCC(=O)O)cc2)CC1 [Cetraxate HCl solution, cetraxate hydrochloride] | 2.33 |  | Ulcer coefficient (acetic acid ulcer; hydrochloride): 2 (2 for 11 to 20 mm^2) (2×) and 3 (3 for 21 to 30 mm^2)
2 | CN/C(=N/CCSCc1nc[nH]c1C)NC#N [Cimetidine solution, cimetidine] | 2.67 | 3 (3 for 21 to 30 mm^2) (2×) and 2 (2 for 11 to 20 mm^2) | 
3 | CCCCC[C@H](O)/C=C/[C@H]1[C@H](O)CC(=O)[C@@H]1CCCCCCC(=O)O [PEG1 solution, prostaglandin (PGE1)] |  |  | Judgment of bleeding in the stomach (indomethacin ulcer): ± (3×) and + and −
4 | CC(=O)CC/C=C(\C)CC/C=C(\C)CC/C=C(\C)CCC=C(C)C [Teprenone solution, teprenone] | 2.33 | 3 (3 for 21 to 30 mm^2) and 2 (2 for 11 to 20 mm^2) (2×) | 
5 | COc1ccc2c(c1)c(CC(=O)O)c(C)n2C(=O)c1ccc(Cl)cc1 [indomethacin] |  |  | Time at which blood concentration reached the maximum ([1]; male, Wister): 3 h; Finding in the stomach [1]: erosive bleeding was observed in the stomach
